For orientation: melting point means the temperature of the solid-liquid transition.

Counter-ions that a name gives are not always drawn.

In turn, `COCC(=O)C(F)(F)Cc1ccc(OCCN(C)CC(c2ccc(Cl)cc2)c2ccc(Cl)cc2)cc1` (as salt: hydrochloride) [Example 9, 4-[4-[2-[N-[2-Bis-(4-chlorophenyl)ethyl]-N-methylamino]ethoxy]phenyl]-2,2-difluoro-1-methoxy-2-butanone] registered a melting point of 53 to 62 °C.

For the origin of these results see US6924391B2, “Alpha-amino,-thio,-oxo substituted ketones as phospholipase inhibitors” (Bristol-Myers Squibb Company, priority 2000, dated 2005).
